Test results taken from patent US10894946B2, “Multiloop engineered heart muscle tissue” (Tissue Systems Holding GmbH, priority 2005, dated 2021).
“Also recorded” adds a separate entry of the source.

Tested on: engineered heart tissue (EHT) rings from heart cells of neonatal rats
Assay: isometric contraction experiments of single EHT rings (twitch tension, calcium response curves)
Format: cell-based, rat
Conditions: culture medium supplemented with 10 pg/ml insulin vs untreated controls; n=4 vs n=3
Procedure: In a further step, the force-generating engineered heart tissue rings, which are in contact with each other, are cultured under conditions which allow the fusion of the contacted ring structures to form an artificial heart muscle construct. For this purpose, the engineered heart tissue rings are normally incubated in culture dishes, wherein the rings are submersed in appropriate culture medium. If a holding device is used for culturing, the device should be designed to allow the tissue rings to stay in continuous contact with the culture medium. The choice of the culture medium is not critical. Conventional media for culturing cardiac myocytes may be used. Such media are known in the art and described, for example, in Zimmermann, W. H. et al., Circulation 106, I 151-7 (2002) and published International Application WO 01/55297. […]
FIGS. 1A-1F show the influences of oxygen, load, and insulin in isometric contraction experiments in single engineered heart tissue (EHT) rings (TT: twitch tension). […] To increase size, 5 EHT rings (FIG. 1D) were stacked in a custom made device that facilitate EHT fusion and contractions under auxotonic load (FIG. 1E), resulting in synchronously contracting multiring EHT constructs (FIG. 1F) ready for in vivo engraftment. *P<0.05 vs. 21% 02, static load, and culture in the absence of insulin (Ctr.), respectively by repeated ANOVA. […]

Substance: insulin
- contracting characteristics (twitch tension) of EHT rings: benefited; also recorded: enhanced contracting characteristics
